# Measurements taken from PMC5218480 (PLoS ONE, 2017).
# Tested on: MV-4-11 cells
# Assay: Gene expression microarray analysis (Affymetrix PrimeView) and GSEA
# Assay type: cell-based, human
# Set-up: RFU PODN (11730768_x_at) / Fold change /veh PODN (11730768_x_at) / RFU LINC00158 (11744669_a_at) / Fold change /veh LINC00158 (11744669_a_at) / RFU DUSP10 (11751237_a_at) / Fold change /veh DUSP10 (11751237_a_at) / RFU ID3 (11757404_x_at) / Fold change /veh ID3 (11757404_x_at) / RFU PLEKHG5 (11737974_s_at) / Fold change /veh PLEKHG5 (11737974_s_at) / RFU LRRC4B (11730491_at) / Fold change /veh LRRC4B (11730491_at) / RFU GIMAP4 (11747438_a_at) / Fold change /veh GIMAP4 (11747438_a_at) / RFU KRT8 (11758183_x_at) / Fold change /veh KRT8 (11758183_x_at) / RFU CNN1 (11734310_a_at) / Fold change /veh CNN1 (11734310_a_at) / RFU VPS37D (11726825_at) / Fold change /veh VPS37D (11726825_at) / RFU C10orf10 (11716522_x_at) / Fold change /veh C10orf10 (11716522_x_at) / RFU KIR2DL2 /// KIR2DL4 /// KIR2DL5A /// KIR2DL5B /// KIR2DS1 /// KIR2DS2 /// KIR2DS3 /// KIR2DS4 /// KIR3DL3 /// KIR3DL3 /// KIR3DS1 (11738374_at) / Fold change /veh KIR2DL2 /// KIR2DL4 /// KIR2DL5A /// KIR2DL5B /// KIR2DS1 /// KIR2DS2 /// KIR2DS3 /// KIR2DS4 /// KIR3DL3 /// KIR3DL3 /// KIR3DS1 (11738374_at) / RFU C1QL1 (11718748_at) / Fold change /veh C1QL1 (11718748_at) / RFU TMPRSS4 (11747572_a_at) / Fold change /veh TMPRSS4 (11747572_a_at) / RFU HAMP (11756126_x_at) / Fold change /veh HAMP (11756126_x_at) / RFU RNFT2 (11725882_a_at) / Fold change /veh RNFT2 (11725882_a_at) / RFU NR4A2 (11747474_a_at) / Fold change /veh NR4A2 (11747474_a_at) / RFU ABCC12 (11746883_a_at) / Fold change /veh ABCC12 (11746883_a_at) / RFU TMEM136 (11760407_x_at) / Fold change /veh TMEM136 (11760407_x_at) / RFU CLDN22 /// WWC2 (11732394_at) / Fold change /veh CLDN22 /// WWC2 (11732394_at) / RFU HLA-DPB1 (11760878_x_at) / Fold change /veh HLA-DPB1 (11760878_x_at) / RFU SPINT1 (11716480_a_at) / Fold change /veh SPINT1 (11716480_a_at) / RFU GAP43 (11754022_s_at) / Fold change /veh GAP43 (11754022_s_at) / RFU A4GNT (11735810_at) / Fold change /veh A4GNT (11735810_at) / RFU PRB3 (11715151_x_at) / Fold change /veh PRB3 (11715151_x_at) / RFU TUBB4B (11761932_at) / Fold change /veh TUBB4B (11761932_at) / RFU CAPN14 (11732068_a_at) / Fold change /veh CAPN14 (11732068_a_at) / RFU TMCC2 (11721928_a_at) / Fold change /veh TMCC2 (11721928_a_at) / RFU IRGQ (11745062_a_at) / Fold change /veh IRGQ (11745062_a_at) / RFU FAM174B (11720279_a_at) / Fold change /veh FAM174B (11720279_a_at) / RFU TMPRSS4 (11748680_a_at) / Fold change /veh TMPRSS4 (11748680_a_at) / RFU FAM212B (11763350_a_at) / Fold change /veh FAM212B (11763350_a_at) / RFU PLEKHG5 (11743358_a_at) / Fold change /veh PLEKHG5 (11743358_a_at) / RFU ZSCAN30 (11745921_a_at) / Fold change /veh ZSCAN30 (11745921_a_at) / RFU CMKLR1 (11741424_a_at) / Fold change /veh CMKLR1 (11741424_a_at) / RFU LOC101060620 /// MAPK8IP1 (11723275_at) / Fold change /veh LOC101060620 /// MAPK8IP1 (11723275_at) / RFU SPTSSB (11747773_x_at) / Fold change /veh SPTSSB (11747773_x_at) / RFU PRSS12 (11739890_at) / Fold change /veh PRSS12 (11739890_at) / RFU BIN1 (11741810_x_at) / Fold change /veh BIN1 (11741810_x_at) / RFU WNT11 (11732464_a_at) / Fold change /veh WNT11 (11732464_a_at) / RFU C10orf10 (11716521_a_at) / Fold change /veh C10orf10 (11716521_a_at) / RFU C5orf56 (11738089_at) / Fold change /veh C5orf56 (11738089_at) / RFU CYB561 (11721691_x_at) / Fold change /veh CYB561 (11721691_x_at) / RFU ANKRD19P (11752326_a_at) / Fold change /veh ANKRD19P (11752326_a_at) / RFU OR2T12 /// OR2T33 /// OR2T8 (11738714_s_at) / Fold change /veh OR2T12 /// OR2T33 /// OR2T8 (11738714_s_at) / RFU VCAN (11748164_a_at) / Fold change /veh VCAN (11748164_a_at) / RFU JSRP1 (11732532_at) / Fold change /veh JSRP1 (11732532_at) / RFU KRTAP10-11 (11738290_x_at) / Fold change /veh KRTAP10-11 (11738290_x_at) / RFU MYO3A (11730013_a_at) / Fold change /veh MYO3A (11730013_a_at) / RFU EBF3 (11725865_a_at) / Fold change /veh EBF3 (11725865_a_at) / RFU CAMK2N1 (11719241_x_at) / Fold change /veh CAMK2N1 (11719241_x_at) / RFU C5orf56 (11738088_a_at) / Fold change /veh C5orf56 (11738088_a_at) / RFU OLFML3 (11715873_a_at) / Fold change /veh OLFML3 (11715873_a_at) / RFU LOC100653217 /// NTM (11731650_a_at) / Fold change /veh LOC100653217 /// NTM (11731650_a_at) / RFU MAPK11 (11762145_a_at) / Fold change /veh MAPK11 (11762145_a_at) / RFU FIZ1 (11724087_x_at) / Fold change /veh FIZ1 (11724087_x_at) / RFU OASL (11726364_x_at) / Fold change /veh OASL (11726364_x_at) / RFU SOX15 (11748057_x_at) / Fold change /veh SOX15 (11748057_x_at) / RFU CD79A (11719716_a_at) / Fold change /veh CD79A (11719716_a_at) / RFU HIST1H1D (11736915_at) / Fold change /veh HIST1H1D (11736915_at) / RFU CASKIN2 (11723855_a_at) / Fold change /veh CASKIN2 (11723855_a_at) / RFU LOC730098 (11760151_x_at) / Fold change /veh LOC730098 (11760151_x_at) / RFU OR4N2 (11742367_at) / Fold change /veh OR4N2 (11742367_at) / RFU PRRT2 (11749266_a_at) / Fold change /veh PRRT2 (11749266_a_at) / RFU SNX32 (11753110_a_at) / Fold change /veh SNX32 (11753110_a_at) / RFU CDHR5 (11726645_a_at) / Fold change /veh CDHR5 (11726645_a_at) / RFU RCAN1 (11760418_a_at) / Fold change /veh RCAN1 (11760418_a_at) / RFU FAM167A (11723789_a_at) / Fold change /veh FAM167A (11723789_a_at) / RFU FAM26E (11764081_at) / Fold change /veh FAM26E (11764081_at) / RFU ISYNA1 (11749810_s_at) / Fold change /veh ISYNA1 (11749810_s_at) / RFU ACY1 (11761880_at) / Fold change /veh ACY1 (11761880_at) / RFU 11764098_at / Fold change /veh 11764098_at / RFU SAMD14 (11745864_x_at) / Fold change /veh SAMD14 (11745864_x_at) / RFU NPB (11741838_a_at) / Fold change /veh NPB (11741838_a_at) / RFU TMPRSS6 (11731388_a_at) / Fold change /veh TMPRSS6 (11731388_a_at) / RFU KRTAP10-2 (11738614_at) / Fold change /veh KRTAP10-2 (11738614_at) / RFU ARHGAP8 /// PRR5-ARHGAP8 (11727945_x_at) / Fold change /veh ARHGAP8 /// PRR5-ARHGAP8 (11727945_x_at) / RFU KRTAP5-7 /// NADSYN1 (11734609_at) / Fold change /veh KRTAP5-7 /// NADSYN1 (11734609_at) / RFU RASL12 (11751679_a_at) / Fold change /veh RASL12 (11751679_a_at) / RFU CDKN2B (11736163_a_at) / Fold change /veh CDKN2B (11736163_a_at) / RFU PRF1 (11729649_at) / Fold change /veh PRF1 (11729649_at) / RFU, ZNF638 /// ZNF638-IT1 / Fold change vs veh, ZNF638 /// ZNF638-IT1 / RFU, PANK3 / Fold change vs veh, PANK3 / RFU, SH3YL1 / Fold change vs veh, SH3YL1 / RFU, ZEB2 / Fold change vs veh, ZEB2 / RFU, NRIP1 / Fold change vs veh, NRIP1 / RFU, PTTG1IP / Fold change vs veh, PTTG1IP / RFU, CAPN2 / Fold change vs veh, CAPN2 / RFU, MED14 / Fold change vs veh, MED14 / RFU, SNORA58 / Fold change vs veh, SNORA58 / RFU, C1orf63 / Fold change vs veh, C1orf63 / RFU, LRRFIP1 / Fold change vs veh, LRRFIP1 / RFU, NDUFAF7 / Fold change vs veh, NDUFAF7 / RFU, SLC12A2 / Fold change vs veh, SLC12A2 / RFU, IBTK / Fold change vs veh, IBTK / RFU, ESF1 / Fold change vs veh, ESF1 / Fold change vs veh, TMEM50B / RFU, TAOK1 / Fold change vs veh, TAOK1 / RFU, ACBD3 / Fold change vs veh, ACBD3 / RFU, TMA16 / Fold change vs veh, TMA16 / RFU, RWDD3 / Fold change vs veh, RWDD3 / RFU, BCAT1 / Fold change vs veh, BCAT1 / RFU, EDEM3 / Fold change vs veh, EDEM3 / RFU, TMEM33 / Fold change vs veh, TMEM33 / RFU, WDR75 / Fold change vs veh, WDR75 / RFU, AHCTF1 / Fold change vs veh, AHCTF1 / RFU, TFRC / Fold change vs veh, TFRC / RFU, ZDHHC17 / Fold change vs veh, ZDHHC17 / RFU, NOM1 / Fold change vs veh, NOM1 / RFU, ARL8B / Fold change vs veh, ARL8B / RFU, ZBTB11 / Fold change vs veh, ZBTB11 / RFU, TAMM41 / Fold change vs veh, TAMM41 / RFU, KIAA1704 /// LOC100996395 / Fold change vs veh, KIAA1704 /// LOC100996395 / RFU, ING1 / Fold change vs veh, ING1 / RFU, TRMT61B / Fold change vs veh, TRMT61B / RFU, FUBP3 / Fold change vs veh, FUBP3 / RFU, TP53 / Fold change vs veh, TP53 / RFU, TNKS2 / Fold change vs veh, TNKS2 / RFU, ZFP14 / Fold change vs veh, ZFP14 / RFU, ACTR2 / Fold change vs veh, ACTR2 / RFU, PPP3R1 / Fold change vs veh, PPP3R1 / RFU, PIK3R1 / Fold change vs veh, PIK3R1 / RFU, HNRNPA1 / Fold change vs veh, HNRNPA1 / RFU, RNF170 / Fold change vs veh, RNF170 / RFU, ZNF28 / Fold change vs veh, ZNF28 / RFU, RNGTT / Fold change vs veh, RNGTT / RFU, OGT / Fold change vs veh, OGT / RFU, BRD1 / Fold change vs veh, BRD1 / RFU, MARS / Fold change vs veh, MARS / RFU, ZNF655 / Fold change vs veh, ZNF655 / RFU, FAHD1 / Fold change vs veh, FAHD1 / RFU, BDP1 / Fold change vs veh, BDP1 / RFU, LRRCC1 / Fold change vs veh, LRRCC1 / RFU, ARID1A / Fold change vs veh, ARID1A / RFU, ZNF146 / Fold change vs veh, ZNF146 / RFU, ZNF330 / Fold change vs veh, ZNF330 / RFU, GPN3 / Fold change vs veh, GPN3 / RFU, C9orf123 / Fold change vs veh, C9orf123 / RFU, N4BP2L2 / Fold change vs veh, N4BP2L2 / RFU, ARFIP1 / Fold change vs veh, ARFIP1 / RFU, FAM179B / Fold change vs veh, FAM179B / RFU, BCL10 / Fold change vs veh, BCL10 / RFU, UHRF1BP1L / Fold change vs veh, UHRF1BP1L / RFU, BET1 / Fold change vs veh, BET1 / RFU, CNOT2 / Fold change vs veh, CNOT2 / RFU, ZNF268 / Fold change vs veh, ZNF268 / Fold change vs veh, ZNF507 / RFU, DGCR2 / Fold change vs veh, DGCR2 / RFU, WDSUB1 / Fold change vs veh, WDSUB1 / Fold change vs veh, HSP90B1 /// MIR3652 / RFU, ADSS / Fold change vs veh, ADSS / RFU, GK / Fold change vs veh, GK / RFU, ZNF148 / Fold change vs veh, ZNF148 / RFU, TAF9 / Fold change vs veh, TAF9 / RFU, SLC1A5 / Fold change vs veh, SLC1A5 / RFU, SLMO2 / Fold change vs veh, SLMO2 / RFU, ABCC4 / Fold change vs veh, ABCC4 / RFU, LOC101060439 /// RAP1B / Fold change vs veh, LOC101060439 /// RAP1B / RFU, RFX7 / Fold change vs veh, RFX7 / RFU, GTPBP10 / Fold change vs veh, GTPBP10 / RFU, CNEP1R1 / Fold change vs veh, CNEP1R1 / RFU, BIVM-ERCC5 /// ERCC5 / Fold change vs veh, BIVM-ERCC5 /// ERCC5 / RFU, ILF3 / Fold change vs veh, ILF3 / RFU 11762660_at / Fold change /veh 11762660_at / RFU VCAN (11757783_s_at) / Fold change /veh VCAN (11757783_s_at) / RFU DDX43 (11728927_at) / Fold change /veh DDX43 (11728927_at) / RFU KRT8 (11758188_x_at) / Fold change /veh KRT8 (11758188_x_at) / RFU NKD1 (11759106_at) / Fold change /veh NKD1 (11759106_at) / RFU SRD5A1 (11742802_a_at) / Fold change /veh SRD5A1 (11742802_a_at) / RFU TPSAB1 /// TPSB2 (11721975_s_at) / Fold change /veh TPSAB1 /// TPSB2 (11721975_s_at) / RFU GSTM3 (11746129_a_at) / Fold change /veh GSTM3 (11746129_a_at) / RFU IL23R (11737362_x_at) / Fold change /veh IL23R (11737362_x_at) / RFU TMEM51 (11727254_a_at) / Fold change /veh TMEM51 (11727254_a_at) / RFU PIWIL2 (11732686_x_at) / Fold change /veh PIWIL2 (11732686_x_at) / RFU ORM1 (11744905_x_at) / Fold change /veh ORM1 (11744905_x_at) / RFU CCDC152 (11743942_at) / Fold change /veh CCDC152 (11743942_at) / RFU ECM1 (11717891_a_at) / Fold change /veh ECM1 (11717891_a_at) / RFU IL23R (11748794_a_at) / Fold change /veh IL23R (11748794_a_at) / RFU TNFAIP8L3 (11732012_x_at) / Fold change /veh TNFAIP8L3 (11732012_x_at) / RFU MBOAT4 (11741988_at) / Fold change /veh MBOAT4 (11741988_at) / RFU 11764193_at / Fold change /veh 11764193_at / RFU TMEM53 (11763286_at) / Fold change /veh TMEM53 (11763286_at) / RFU MAGEB2 (11727129_at) / Fold change /veh MAGEB2 (11727129_at) / RFU TMEM200A (11744735_a_at) / Fold change /veh TMEM200A (11744735_a_at) / RFU CCDC152 (11751479_a_at) / Fold change /veh CCDC152 (11751479_a_at) / RFU FAM211A (11726209_a_at) / Fold change /veh FAM211A (11726209_a_at) / RFU RGS16 (11746705_a_at) / Fold change /veh RGS16 (11746705_a_at) / RFU VCAN (11755009_s_at) / Fold change /veh VCAN (11755009_s_at) / RFU RHOB (11743442_s_at) / Fold change /veh RHOB (11743442_s_at) / RFU RGS16 (11720943_a_at) / Fold change /veh RGS16 (11720943_a_at) / RFU RGS16 (11720944_at) / Fold change /veh RGS16 (11720944_at) / RFU, VPS4B / Fold change vs veh, VPS4B / RFU, CREB1 / Fold change vs veh, CREB1 / RFU, DNAJC13 / Fold change vs veh, DNAJC13 / RFU, GNAQ / Fold change vs veh, GNAQ / RFU, CDK5R1 / Fold change vs veh, CDK5R1 / RFU, ZRANB3 / Fold change vs veh, ZRANB3 / RFU, CUL4A / Fold change vs veh, CUL4A / RFU, CCNY / Fold change vs veh, CCNY / RFU, UFL1 / Fold change vs veh, UFL1 / RFU, COG3 / Fold change vs veh, COG3 / RFU, DIAPH2 / Fold change vs veh, DIAPH2 / RFU, SKA2 / Fold change vs veh, SKA2 / RFU, AFF3 / Fold change vs veh, AFF3 / RFU, LMF1 / Fold change vs veh, LMF1 / RFU, IPO11 / Fold change vs veh, IPO11 / RFU, DFFB / Fold change vs veh, DFFB / RFU, FOXP1 / Fold change vs veh, FOXP1 / RFU, CARD8 / Fold change vs veh, CARD8 / RFU, STRN3 / Fold change vs veh, STRN3 / RFU, ADK / Fold change vs veh, ADK / RFU, RASSF2 / Fold change vs veh, RASSF2 / RFU, WIPF1 / Fold change vs veh, WIPF1 / RFU, LARP1B / Fold change vs veh, LARP1B / RFU, RASA1 / Fold change vs veh, RASA1 / RFU, RB1 / Fold change vs veh, RB1 / RFU, PPFIA1 / Fold change vs veh, PPFIA1 / RFU, MAT2A / Fold change vs veh, MAT2A / RFU, CCT5 / Fold change vs veh, CCT5 / RFU, WDR92 / Fold change vs veh, WDR92 / RFU, CUX1 / Fold change vs veh, CUX1 / RFU, TTC7A / Fold change vs veh, TTC7A / RFU, TMEM135 / Fold change vs veh, TMEM135 / RFU, DEPTOR / Fold change vs veh, DEPTOR / RFU, CPM / Fold change vs veh, CPM / RFU, DNAJB6 / Fold change vs veh, DNAJB6 / RFU, CACNA2D3 / Fold change vs veh, CACNA2D3 / RFU, DTX4 / Fold change vs veh, DTX4 / RFU, TFCP2 / Fold change vs veh, TFCP2 / RFU, GMCL1 /// GMCL1P1 / Fold change vs veh, GMCL1 /// GMCL1P1 / RFU, AEBP2 / Fold change vs veh, AEBP2 / RFU, SNHG1 /// SNORD22 /// SNORD25 /// SNORD26 /// SNORD27 /// SNORD28 /// SNORD29 /// SNORD31 / Fold change vs veh, SNHG1 /// SNORD22 /// SNORD25 /// SNORD26 /// SNORD27 /// SNORD28 /// SNORD29 /// SNORD31 / Fold change (Aza/veh), C12orf56 (ProbeSet 11735607_a_at) / Fold change (ACY-1035/veh), C12orf56 (ProbeSet 11735607_a_at) / Fold change (Aza/veh), FGFR1OP (ProbeSet 11751329_s_at) / Fold change (ACY-1035/veh), FGFR1OP (ProbeSet 11751329_s_at) / Fold change (Aza/veh), VPS36 (ProbeSet 11739960_a_at) / Fold change (ACY-1035/veh), VPS36 (ProbeSet 11739960_a_at) / RFU SYPL1 (11715823_x_at) / Fold change /veh SYPL1 (11715823_x_at) / RFU IGFBP7 (11715501_s_at) / Fold change /veh IGFBP7 (11715501_s_at) / RFU REEP3 (11722064_at) / Fold change /veh REEP3 (11722064_at) / RFU IGLL1 (11728026_x_at) / Fold change /veh IGLL1 (11728026_x_at): dose or concentration left out as unconfirmed
# Conditions: ProbeSet 11758170_s_at; LIST D
smiles,measurement,value
Nc1ccc(-c2cccs2)cc1NC(=O)c1ccc2c(c1)cc(C1CC1)n2CCN1CCOCC1 [ACY-1035],"Fold change vs veh, DIAPH2",1.00
